Assay results as given in patent publication US12377173B2, “Compositions comprising hyperpolarized probes for H2O2 sensing and methods of using same” (Duke University, priority 2021, dated 2025).

Assays:
[1] = ROS selectivity test, LC/MS conversion to 4-cyanopyridine; settings: 200 μM BBCP, 2 mM H2O2 (10 equiv), PBS pH 7.4, 5-30 min, room temperature
Method: (§1) Selectivity for the BBCP probe was measured by analytical high performance liquid chromatography (HPLC) using Agilent 1200 Series HPLC System equipped with a multi-wavelength detector and an Agilent Zorbax SB-C18 Column (3.5 μm particle size, 3.0×150 mm). Concentrations of 4-cyanopyridine was calculated using integrated peak intensities at 280 nm using a calibration curve. All reactions were tested with 200 μM BBCP and 2 mM ROS/RNS (10 equiv) in PBS (pH 7.4). At a given time point, the reaction was quenched with 10 μL 1 M ascorbic acid (10 mM) and analyzed by LCMS. The ROS and RNS were generated as follows:
H2O2: A 30% H2O2 in H2O solution was diluted to a 500 mM stock solution. 4 μL of 500 mM H2O2 (2 mM) was added to a 200 μM of BBCP in PBS.

[2] = ROS/RNS/reactive sulfur selectivity test, LC/MS; settings: 200 μM probe, 2 mM reactive species, PBS pH 7.4, LC/MS (FIG. 1B)
Method: as §1, with “LCMS.” for “LCMS. The ROS and RNS were generated as follows:”

[3] = ROS selectivity test, LC/MS; settings: 200 μM BBCP, 2 mM OCl^−, PBS pH 7.4, LC/MS
Method: as §1
OCl^−: Commercial bleach (8.25% NaOCl) was diluted to 500 mM. 4 μL of 500 mM NaOCl (for a final concentration of 2 mM) was added to 200 μM of BBCP.

[4] = ROS/RNS selectivity test, LC/MS; settings: 200 μM BBCP, 2 mM ONOO^−, PBS pH 7.4, LC/MS
Method: as §1
ONOO^−: To a solution of aqueous NaOH (0.5 M, 2.5 mL) and iPrOH (2.5 mL) was added H2O2 (30% in H2O, 0.12 mL, 1.2 mmol, 1.2 equiv), followed by isoamyl nitrite (0.135 mL, 1.0 mmol, […]). The reaction was stirred at room temperature for 20 mins and washed with CH2Cl2 (10 mL×2). […] The solution was then filtered and stored in −20° C. until use. The concentration of the stock solution was calculated to be 14.3 mM using absorbance at 302 nm (e=1670 M^−1).

[5] = UV/Vis kinetics measurement; settings: 25° C., PBS pH 7.4, 50 μM BBCP, 5 mM H2O2 (100 equiv)
Method: The pseudo-first order rate constant was calculated by monitoring the BBCP consumption with UV/Vis spectroscopy over time in the presence of excess H2O2. A solution of BBCP (50 μM) oxidation was initiated by the addition of freshly prepared H2O2 (5 mM, 100 equiv) in PBS (pH 7.4) at 25° C. Reactions were monitored as Abs310 change and scanned every 30 s for 20 minutes. The apparent k1 value was determined by the initial rate of reaction (0-50 s) as (3.4±0.15)×10^−3 min^−1. The experiment was repeated in triplicate to give a k2 value of 12.6±0.52 M^−1 min^−1 (0.21±0.0087 M^−1 s^−1).

HeLa cells = assay: Cytotoxicity analysis using WST-8 assay (CCK-8); format: cell-based; settings: concentrations up to 10 mM, 6 h of treatment
Method: WST cytotoxicity assay was performed using Cell Counting Kit-8 (CCK-8) according to the procedure as follows. HeLa cells were seeded in a 96-well plate at a concentration of 5000 cells/well in DMEM medium (high glucose) supplemented with 10% FBS and 1% sodium pyruvate. The cell cultures were incubated for 24 h in a humidified atmosphere of 5% CO2 at 37° C. After the incubation period, 10 μL of 5, 10, 50, 100 mM stock solutions of BBCP dissolved in PBS buffer (pH 7.4) were added to each well so the final concentration is 0.5, 1, 5, 10 mM, respectively. PBS and sodium dodecyl sulfate (SDS) (1 mM) were used as negative and positive controls, respectively. The treated 96-well plates were incubated for 6 and 24 h in a humidified atmosphere of 5% CO2 at 37° C. After appropriate incubation time, the CCK-8 solution (10 μL) was added to each well and further incubated for 2 h for color development. The absorbance at 450 nm from each well was measured by using a microplate reader (Synergy™ H1, BioTek). The background absorbance of BBCP corrected.

[6] = In vivo reaction-based detection of H2O2 with hyperpolarized 15N-BBCP; settings: rat
Method: Finally, the ability of ^15N-BBCP to image H2O2 in vivo using clinical 3 T MRI was assessed.
Finally, the feasibility of ^15N-BBCP to detect H2O2 in vivo was investigated in a rat model at the clinical 3 T MRI. […] Despite the small chemical shift difference, the accumulation of ^15N-HBCP production was clearly observed in the later time points.

[7] = Stability in PBS and DMEM media (LCMS)
[8] = injection of exogenous H2O2, 3 T 15N-MRS (Example 3)

## 1-(4-boronobenzyl)-4-(cyano)pyridin-1-ium [^15N-BBCP]
[1]
  conversion to 4-cyanopyridine on reaction with H2O2: significant conversion to 4-cyanopyridine
[2]
  reactivity toward hydrogensulfite: showed reactivity
[3]
  reactivity with hypochlorite: moderate reactivity
[4]
  reactivity with peroxynitrite: moderate reactivity
[5]
  apparent k1 (pseudo-first order rate constant), initial rate 0-50 s: (3.4±0.15)×10^−3 min^−1
HeLa cells
  cell viability: > 90%
[6]; [8]
  15N-CP (fragmentation product) signal in vivo: ^15N-CP was not observed
  15N-HBCP (oxidation product) signal in vivo: ^15N-HBCP peak was detectable
[6]; intravenous bolus 40-mM after intraperitoneal H2O2, 3 T
  15N-CP (fragmentation product) signal in vivo: ^15N-CP was not observed
[6]; intravenous bolus 40-mM after intraperitoneal H2O2, slab with liver and kidneys, 3 T
  15N-HBCP (oxidation product) signal in vivo: both ^15N-BBCP and ^15N-HBCP peaks appeared
[7]; 0 hours
  LCMS absorbance peak area of the probe in PBS: 566.6
[7]; 200 μM probe, pH 7.4, room temp, LCMS
  time stable in PBS and DMEM media: over 26 h
[7]; 2 hours
  LCMS absorbance peak area of the probe in PBS: 565.6
[7]; 26 hours
  LCMS absorbance peak area of the probe in PBS: 564.9
[7]; PBS, pH 7.4, 200 μM, 0, 2 and 24 h (FIG. 4)
  stability in physiological buffer solution (in words): only showing hydrolysis of boronic ester to boronic acid
